This passage reports melting point results from a melting point compilation (Tetko et al.).

Structures are written as SMILES.

`O=C1CC(c2ccccc2)=NN1c1ccccc1` came in with a melting point of 138 to 140 °C.

`Nc1ccc2c(Br)ccc(Cl)c2n1`: the melting point lay in the range of 249 to 251 °C.

On to `CC(=O)CCCOc1ccccc1C(N)=O`, for which the melting point is 80 to 82 °C.

`Nc1nc2cnccc2s1` had a melting point of 275 to 277 °C.

Take `CC(C)S(=O)(=O)c1ccccc1C(=O)O`: the melting point lay within 149 to 151 °C.

In turn, `Fc1cccc(F)c1-n1ccc(CCl)n1` had a melting point of 39 to 41 °C.

Regarding `O=C(O)C(Oc1ccc(Br)cc1Cl)c1ccccc1` (stereo unspecified), the melting point lay within 135 to 137 °C.

The compound `COc1ccc(CC2CCNCC2)cc1` gave a melting point of 55 to 57 °C.

Take `Cn1ccnc1C(O)(c1nccn1C)C1CC1`: the melting point was 166 to 168 °C.

For `N#CCC(=O)N1CCN(c2ccccc2)CC1`, the melting point was in the range of 132 to 134 °C.

On to `CCOC(=O)C(O)c1nccn1Cc1ccccc1` (stereo unspecified), for which the melting point fell in the range of 134 to 136 °C.

Turning to `Cc1c(Br)cc(C(=O)O)cc1S(=O)(=O)Cl`, the melting point was 183 to 185 °C.

In turn, `CC(=O)Nc1cccc(I)c1` had a melting point of 123 to 125 °C.

In the case of `CCCCc1ccc(NS(=O)(=O)c2ccc(N)cc2OC)cc1`, the melting point was 170 to 172 °C.

On to `CC(=O)Nc1cc(F)c(S(=O)(=O)Cl)cc1Cl`, for which the melting point is 163 to 165 °C.

`COC(=O)c1sc2ncccc2c1N` had a melting point of 191 to 193 °C.

The compound `O=c1[nH]c2c(Br)cccc2c(=O)o1` had a melting point of 169 to 171 °C.

Compound `NC(=O)CSc1ccccc1NC(=O)CCl` yielded a melting point of 129 to 131 °C.

Turning to `COC(=O)c1cc(C(=O)OC)cc(-n2c(C)cc(C(=O)CCl)c2C)c1`, the melting point was in the range of 153 to 155 °C.

For the compound `CC(Cl)c1nnc(-c2ccc([N+](=O)[O-])cc2)o1` (stereo unspecified), the melting point fell in the range of 161 to 163 °C.

Regarding `CCOc1ccc(S(=O)(=O)Cl)cn1`, the melting point is 47 to 49 °C.

`Brc1ncnc2ccccc12` gave a melting point of 94 to 96 °C.

For the compound `O=C(O)c1cnc2c(cnn2C2CCCC2)c1`, the melting point lay in the range of 141 to 143 °C.

`O=C(O)C1CCCCC1C(=O)N1CCCC1` (stereo unspecified) displayed a melting point of 119 to 121 °C.

Regarding `Nc1ncc(Br)cc1S(=O)(=O)Cl`, the melting point is 129 to 131 °C.

`Nc1ccccc1C(=O)NCc1ccc2c(c1)OCO2` had a melting point of 115 to 124 °C.

`O=C(O)c1cc2c(cc1O)OCO2` displayed a melting point of 189 to 191 °C.

Consider `Cc1cc(O)nc(C(C)Cl)n1` (stereo unspecified), for which the melting point was in the range of 132 to 134 °C.

`O=C(O)[C@@H](Cl)c1ccccc1` returned a melting point of 56 to 58 °C.

In turn, `NNc1nccnc1Cl` gave a melting point of 153 to 155 °C.

Turning to `NC(=S)NCC1CCC1`, the melting point lay in the range of 123 to 125 °C.

Turning to `Nc1ccc(N2CCNC2=O)cc1`, the melting point lay within 171 to 173 °C.

The compound `Nc1ccc(-n2cncn2)nc1` had a melting point of 188 to 190 °C.

Compound `COc1cc(Cl)c(C(=O)O)cc1OC` had a melting point of 179 to 181 °C.

Turning to `Cc1nn2c(CO)c(C(C)C)nc2s1`, the melting point was in the range of 119 to 121 °C.

For `Cc1cccc(C)c1CC(=O)O`, the melting point lay in the range of 117 to 119 °C.

Consider `O=C(O)C1CCN(c2cccc(Br)c2)C1=O` (stereo unspecified), for which the melting point lay within 144 to 146 °C.

`COc1ccc(-c2cc(C(=O)O)[nH]n2)cc1`: the melting point is 209 to 211 °C.

`CNC1CCN(c2cc(OC)cc(OC)c2)C1` (stereo unspecified) showed a melting point of 52 to 54 °C.

`Nc1ccc(-c2cccc(C(F)(F)F)c2)cc1`: the melting point lay within 65 to 67 °C.

In the case of `CCOC(=O)/C(C#N)=C\Nc1ccc2c(c1)OCCCO2`, the melting point was in the range of 124 to 126 °C.

For the compound `CCCSc1nsc(N)n1`, the melting point lay in the range of 54 to 56 °C.

The compound `O=C(O)CCCc1ccc(O)cc1` showed a melting point of 106 to 108 °C.

`CN(C)c1ncccc1O` showed a melting point of 173 to 175 °C.

`CC1Cc2ccccc2N1Cc1ccoc1C(=O)O` (stereo unspecified): the melting point was 170 to 172 °C.

With `Cc1cc(C(=O)O)cc(C)c1OCC(=O)N1CCCCC1`, the melting point lay within 175 to 177 °C.

As to `Cc1ccc(Br)c2c1NC(=O)C2=O`, the melting point lay in the range of 239 to 241 °C.

Consider `NC(=NO)c1ccc(OCc2cccnc2)cc1`, for which the melting point fell in the range of 165 to 167 °C.

Compound `COc1ccc(C)cc1-c1nnc(S)n1N` yielded a melting point of 247 to 249 °C.

For `O=C(O)c1cc(F)ccc1-n1ccnc1`, the melting point lay in the range of 229 to 231 °C.

`Cc1cccc2c(=O)[nH]c(CCl)nc12` gave a melting point of 190 to 192 °C.

For the compound `Nc1ccc(CC(=O)N2CCN(c3ccccc3)CC2)cc1`, the melting point lay in the range of 201 to 203 °C.

Consider `NC(CC(=O)O)C1CC1` (stereo unspecified), for which the melting point was in the range of 209 to 211 °C.

As for `Nc1ccc(-c2nc(C3CC3)n[nH]2)cc1`, the melting point was 192 to 194 °C.

The compound `NC(=NO)c1cccc(OCc2cccnc2)c1` came in with a melting point of 127 to 129 °C.

In turn, `Nc1sc2c(c1C(=O)NCc1ccccc1)CCCC2` yielded a melting point of 112 to 114 °C.

As for `O=C(O)c1ccc(Oc2cccc(Br)c2)cc1`, the melting point fell in the range of 151 to 153 °C.

`COc1cccc(-n2c(CC(=O)NN)csc2=NCc2ccco2)c1` came in with a melting point of 151 to 153 °C.

On to `O=C(O)c1ccc(Cc2nnc[nH]2)cc1`, for which the melting point fell in the range of 219 to 221 °C.

`NS(=O)(=O)c1cccc2ncccc12`: the melting point was in the range of 179 to 181 °C.

For `CCOC(=O)C(O)(CC#N)c1nccn1C` (stereo unspecified), the melting point lay within 117 to 119 °C.

As to `O=C(O)c1cc(S(=O)(=O)Cl)c(F)cc1Cl`, the melting point lay in the range of 144 to 146 °C.

Regarding `COCCOc1cc2c(cc1CO)OCO2`, the melting point is 56 to 58 °C.

Compound `Cc1nc2ccccc2c(=O)n1-c1ccc(Br)cc1` registered a melting point of 176 to 178 °C.

Turning to `O=C1CCN(c2ccc([N+](=O)[O-])cc2)CC1`, the melting point was in the range of 162 to 164 °C.

As to `O=C(O)C1=C(c2ccccc2)N2CCS(=O)(=O)N=C2S1`, the melting point fell in the range of 244 to 246 °C.

As for `O=C(O)c1cc([N+](=O)[O-])ccc1I`, the melting point lay in the range of 194 to 196 °C.

Turning to `O=C(O)C1CSC(c2ccc(Cl)s2)N1` (stereo unspecified), the melting point lay in the range of 149 to 151 °C.

As for `Nc1ccc(S(=O)(=O)NC2CCC(O)CC2)cc1` (stereo unspecified), the melting point lay within 154 to 156 °C.

For `CC1CC1C(=O)NN` (stereo unspecified), the melting point was 85 to 87 °C.

Take `O=C(O)c1cc(S(=O)(=O)N2CCOCC2)c[nH]1`: the melting point lay within 264 to 266 °C.

`CC(C)C(C(=O)O)N1CCCC1=O` (stereo unspecified) gave a melting point of 130 to 132 °C.

`Nc1nc2c(Cl)cccc2[nH]1`: the melting point lay in the range of 143 to 145 °C.

Turning to `COCc1ccccc1CNC(=O)CCl`, the melting point was 51 to 53 °C.

`O=Cc1cccc2nccn12` came in with a melting point of 123 to 125 °C.

With `O=C(O)C1=NN(Cc2ccccc2)C(=O)CC1`, the melting point was 179 to 181 °C.

Turning to `Cc1ccc(OC(C)C(=O)O)cc1` (stereo unspecified), the melting point was 101 to 103 °C.

`COc1ccccc1NC(=O)c1c(C)n[nH]c1N` had a melting point of 178 to 182 °C.

For the compound `O=C1C(Br)CCN1c1ccc(Cl)c(F)c1` (stereo unspecified), the melting point was 94 to 96 °C.

`O=S1(=O)CC(SCc2ccccc2)c2ccccc21` (stereo unspecified) registered a melting point of 72 to 74 °C.

Regarding `CN(C(=O)CCl)C1(C#N)CCCCC1`, the melting point is 86 to 90 °C.

The compound `NC(=S)CC(N)=S` registered a melting point of 202 to 204 °C.

Compound `O=C(O)C=CC1CCC=CO1` (stereo unspecified) yielded a melting point of 81 to 83 °C.

The compound `COc1ccc(OCCCC(=O)O)cc1` showed a melting point of 101 to 105 °C.

`O=C(O)c1ccc[nH]1` came in with a melting point of 204 to 208 °C.

As for `COC(=O)c1oc(CO)cc1C`, the melting point was 87 to 89 °C.

In the case of `Nc1ccccc1NC12CC3CC(CC(C3)C1)C2`, the melting point was 92 to 94 °C.

Compound `COc1ccc(S(N)(=O)=O)cc1[N+](=O)[O-]` returned a melting point of 139 to 141 °C.

Compound `Cn1cc(-c2ccc(Cl)nn2)cn1` gave a melting point of 188 to 190 °C.

In the case of `CC1(C)Cc2cc(C(=O)O)sc2-c2ccccc21`, the melting point lay within 209 to 211 °C.

`CN(CC(=O)O)c1ccc(C#N)cn1` showed a melting point of 170 to 172 °C.

`CCOC(=O)/C(C#N)=C/Nc1ccc(I)cc1` yielded a melting point of 155 to 157 °C.

With `Nc1ccc2c(c1)N1CCN=C1S2`, the melting point was 201 to 204 °C.

Consider `N#Cc1ccccc1COc1ccc(C(=O)O)cc1`, for which the melting point lay within 211 to 213 °C.

`Cc1oc(Cn2cc(Br)cn2)cc1C(=O)O` yielded a melting point of 159 to 161 °C.

The compound `c1cnc2[nH]cc(C3CCNCC3)c2c1` had a melting point of 159 to 161 °C.

`Nc1cccc2oc(C(F)(F)F)nc12` displayed a melting point of 49 to 51 °C.

Consider `COc1cc(C2(C(=O)O)CC2)ccc1C`, for which the melting point was in the range of 127 to 129 °C.

As for `Clc1nc(-c2ccsc2)nc2ccccc12`, the melting point was in the range of 122 to 124 °C.

Compound `COc1cc(OC)cc(C(=O)NCC(=O)O)c1` showed a melting point of 91 to 93 °C.

With `COC(=O)c1cc(Cl)cc([N+](=O)[O-])c1O`, the melting point is 163 to 165 °C.

In the case of `Nc1ncc(Cc2c(Cl)cccc2Cl)s1`, the melting point fell in the range of 139 to 141 °C.

For the compound `CCN(Cc1ccccc1)S(N)(=O)=O`, the melting point lay within 79 to 81 °C.

The compound `CCc1c(Cl)nc(-c2ccccc2)nc1Cl` returned a melting point of 73 to 75 °C.

In turn, `Cc1cc(C(=O)NCC(=O)O)ccc1[N+](=O)[O-]` came in with a melting point of 216 to 218 °C.

`Nc1cnccc1-c1cccc(F)c1`: the melting point was 66 to 68 °C.

`CCc1[nH]nc(N)c1-c1ccc2c(c1)OCO2` registered a melting point of 97 to 99 °C.

`NC(=NO)c1ccc(Oc2ccccc2)nc1` had a melting point of 159 to 161 °C.

`COC(=O)c1c(F)cccc1S(=O)(=O)Cl` showed a melting point of 46 to 48 °C.

In turn, `CN1C(=O)CCc2cc(C(=O)O)ccc21` came in with a melting point of 209 to 211 °C.

Take `Cc1nc(-c2ccncc2)nc(O)c1C`: the melting point was in the range of 256 to 258 °C.

With `Cc1ccc(N)c(C)c1O`, the melting point fell in the range of 102 to 104 °C.

`CCCCCn1nc(C(=O)O)c2ccccc2c1=O` registered a melting point of 144 to 146 °C.

The compound `ClCc1coc(-c2ccccc2Br)n1` yielded a melting point of 46 to 48 °C.

`O=C(O)Cn1c(=O)oc2ccccc21` showed a melting point of 178 to 180 °C.

`N#Cc1cc2ccccc2nc1Br`: the melting point was 179 to 181 °C.

As for `Nc1cccc(-c2csc(N)n2)c1`, the melting point fell in the range of 174 to 176 °C.

In turn, `Cc1cnn(-c2ccccc2)c1N` had a melting point of 79 to 81 °C.

`NNc1cc(C(F)(F)F)nc(-c2ccccn2)n1`: the melting point is 169 to 171 °C.

Take `NC(=S)c1ccc(NC(=O)CC2CCCC2)cc1`: the melting point fell in the range of 195 to 197 °C.

With `CN(C)C(=O)Sc1cccc(CCl)c1`, the melting point fell in the range of 44 to 46 °C.
